What was measured:
[1] = system: LvM3b cells; test: Liver metastasis in mice injected with LvM3b cells with or without CKB knockdown, pre-treated with metabolite; assay type: in vivo; settings: for rescue of metastasis suppression upon CKB knockdown: LvM3b cells with CKB knockdown, pre-treated 10 uM, day 21
Excerpt: CKB is known to regulate the reservoir of rapidly mobilized high-energy phosphates in tissues such as the brain and kidneys by catalyzing the transfer of a high-energy phosphate group from phosphocreatine to ADP, yielding ATP and creatine. It was hypothesized that CKB generation of ATP from phosphocreatine might provide colon cancer cells with an energetic advantage during hepatic colonization. To determine if ATP, the end-product of CKB catalysis, could rescue metastasis suppression seen upon CKB knockdown, CKB knockdown cells were loaded with ATP prior to injection of cells in experimental metastasis assays. Briefly, liver metastasis was examined in mice injected with 5×10^5 LvM3b with or without CKB knockdown and pre-treated with 100 uM ATP or vehicle. Metastatic burden was monitored by bioluminescent imaging and mice euthanized 21 days after injection.
Similar studies were done to determine whether creatine and phosphocreatine could rescue the phenotype of seen upon CKB knock-down. More specifically, assays were performed to examine liver metastasis in mice injected with 5×10^5 LvM3b cells pre-treated with 10 uM creatine, in the background of CKB knockdown. The mice were then euthanized as described above and liver extracted for ex vivo bioluminescent imaging at day 21 after injection. Also, colorectal cancer metastasis was examined in mice injected with 5×10^5 LvM3b cells with CKB knockdown and pre-treated with 10 uM creatine-phosphate. Liver metastasis was monitored by bioluminescent imaging and mice were euthanized as described above.

[2] = system: PANC1 pancreatic cancer cells; test: Cell viability of PANC1 cells, WST-1 reagent, Gemcitabine with or without B-GPA; assay type: cell-based, human; settings: 10 mM B-GPA, 48 hours, Gemcitabine 1 nm-1000000 nm
Method: Briefly, 10000 PANC1 cells were seeded in triplicate in 96-well plates and treated with various concentrations of Gemcitabine (1 nm, 10 nm, 100 nm, 1000 nm, 10000 nm, 100000 nm, and 1000000 nm) with or without 10 mM of B-GPA for 48 hours. Cell viability was then assayed using the WST-1 reagent (Roche Applied Science), with absorbance at 440 nm an indicator of the number of viable cells.

[3] = system: LvM3b cells; test: Liver metastasis in mice injected with LvM3b cells, treated by daily intra-peritoneal injection, bioluminescent imaging; assay type: in vivo
Method: Mice were treated with 10 mg of cyclocreatine or saline vehicle, administered through intra-peritoneal injection. The treatment regime started one day after inoculation of tumor cells and continued until the mice were euthanized. Beta-guanidipropionic acid was administered at a dose of 200 ul of 0.5M solution through intra-peritoneal injection. Treatment regime were as that for cyclocreatine treatment.
Finally, assays were carried out to determine the impact of small-molecule inhibition of CKB and restriction of creatine availability on colon cancer metastasis. Cyclocreatine, which resembles phosphocreatine, is a transition-state analog for creatine kinases. To examine the effect of cyclocreatine, bioluminescent measurements of liver metastasis were carried out in mice injected with 5×10^5 LvM3b cells and treated with cyclocreatine daily for two weeks. The mice were then euthanized and livers excised for ex vivo imaging at the end of the treatment.
Similar assays were carried out using a creatine transporter inhibitor beta-guanidinopropionic acid (B-GPA). Bioluminescent measurements were used to examine liver metastasis in mice injected with 5×10^5 LvM3b cells and treated with B-GPA daily for two weeks.
In this example, assays were carried out to confirm the therapeutic potential of targeting the creatine transporter channel SLC6a8 by administering the small molecule B-GPA, which is an inhibitor of SLC6a8. […] To confirm this therapeutic effect, mice injected with LvM3b colon cancer cells we treated with either B-GPA or control vehicle (PBS) via intra-peritoneal injection daily for three weeks (FIG. 2). The mice were euthanized at three weeks and liver extracted for bioluminescent imaging and gross histology.
More specifically, the average photon flux ratios as measure by the bioluminescence imaging for the control group (without treatment of B-GPA) and the treated groups were about 800 and 100, respectively.

[4] = system: Ls-LvM3b colon cancer cells; test: Cell viability of Ls-LvM3b cells, WST-1 reagent, 5'-Fluorouracil with or without B-GPA; assay type: cell-based, human; settings: 10 mM B-GPA, 48 hours
Method: To that end, 10,000 Ls-LvM3b cells were seeded in triplicate in 96-well plates and treated with various concentrations of 5′-Fluorouracil with or without 10 mM of B-GPA for 48 hours. Cell viability was assayed in the same manner described above with absorbance at 440 nm an indicator of the number of viable cells.

[5] = system: PANC1 pancreatic cancer cells; test: Survival of PANC1 cells pre-treated with B-GPA in immunodeficient mice, bioluminescence imaging; assay type: in vivo; settings: PANC1 cells pre-treated 10 mM 48 hours
Method: Briefly, PANC1 pancreatic cancer cells were incubated for 48 hours with and without the presence of 10 mM of B-GPA, then injected into immunodeficient mice (5×10^5 PANC1 cells each mouse; 4 mice each in the treated and untreated cohort). The mice were imaged with bioluminescence imaging on day 1 after injection and signal was normalized to day zero. […] More specifically, the average photon flux ratios as measure by the bioluminescence imaging for the control group (without treatment of B-GPA) and the treated groups were about 2.7 and 1.6, respectively.

[6] = biological target: T1, SLC6a8 (Homo sapiens, UniProt P48029); test: Liver metastasis by SW480 cells expressing shRNA targeting SLC6a8; assay type: in vivo, mice; settings: 5×10^5 SW480 cells; 28 days
T1 sequence (P48029 1-635): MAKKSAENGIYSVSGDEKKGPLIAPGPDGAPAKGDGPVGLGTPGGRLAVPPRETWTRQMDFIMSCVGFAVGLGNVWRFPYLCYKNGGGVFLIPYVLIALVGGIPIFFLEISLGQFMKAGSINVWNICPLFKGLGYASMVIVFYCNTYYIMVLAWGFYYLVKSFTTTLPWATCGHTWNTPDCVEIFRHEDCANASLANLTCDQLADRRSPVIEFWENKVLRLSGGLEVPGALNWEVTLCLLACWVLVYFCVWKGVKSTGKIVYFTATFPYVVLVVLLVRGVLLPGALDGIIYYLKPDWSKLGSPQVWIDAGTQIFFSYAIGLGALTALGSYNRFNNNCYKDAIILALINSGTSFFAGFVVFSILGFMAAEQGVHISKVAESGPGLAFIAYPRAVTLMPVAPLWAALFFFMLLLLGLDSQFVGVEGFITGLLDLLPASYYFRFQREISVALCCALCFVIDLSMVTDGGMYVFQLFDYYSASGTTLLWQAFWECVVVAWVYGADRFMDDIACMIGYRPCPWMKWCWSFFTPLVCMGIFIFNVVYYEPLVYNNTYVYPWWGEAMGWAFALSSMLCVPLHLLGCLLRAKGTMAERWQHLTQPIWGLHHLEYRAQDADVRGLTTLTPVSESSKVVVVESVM
Method: (§1) pLKO vectors expressing shRNA hairpins targeting CKB and SLC6a8 were ordered from Sigma-Aldrich. Two independent hairpins that gave the best knockdown of transcript levels were used for all experiments. These hairpin DNA and RNA sequences are listed below:
To further confirm the therapeutic benefit of knockdown of SLC6a8, another independent colon cancer cell line (SW480 colon cancer cell line) expressing a short hairpin RNA targeting SLC6a8 (shSLC6a8 #2) was injected into mice (FIG. 3b).

[7] = biological target: T1, SLC6a8; test: Liver metastasis by LvM3b cells expressing shRNA targeting SLC6a8; assay type: in vivo, mice; parameters: endogenous in cells; host or cells: LvM3b colon cancer cells (derivative of LS-174T) injected into mice; settings: three weeks after inoculation
Method: as §1
Briefly, mice were injected with LvM3b colon cancer cells expressing either of two independent short hairpin RNAs (shSLC6a8 #4 or shSLC6a8 #5) targeting the creatine transporter channel SLC6a8 or with control RNA (empty pLKO vector, ordered from Sigma Aldrich) (FIG. 3a). Again, liver metastasis was monitored by bioluminescent imaging and mice were euthanized three weeks after inoculation of cancer cells. Livers were extracted for gross histology.

[8] = biological target: T1, SLC6a8; test: Liver metastasis by PANC1 cells expressing shRNA targeting SLC6a8; assay type: in vivo, mice; settings: at 28 days
Excerpt: as §1
Lastly, the therapeutic benefit of targeting SLC6a8 was investigated in pancreatic cancer cells. To accomplish this, PANC1 pancreatic cancer cells expressing either an shRNA targeting SLC6a8 (shSLC6a8 #5) or a control RNA (empty pLKO vector) were injected into mice. Metastatic progression was monitored by bioluminescent imaging and mice were euthanized in the same manner described above.

[9] = 5×10^5 LvM3b cells, treated daily for two weeks

Nc1ncnc2c1ncn2[C@@H]1O[C@H](COP(=O)(O)OP(=O)(O)OP(=O)(O)O)[C@@H](O)[C@H]1O [ATP]
enhancement of suppressed metastasis phenotype ([1]; LvM3b cells depleted of CKB, pre-treated 100 uM, 21 days): more than 10 folds
metastatic activity of cells expressing a short-hairpin control ([1]; LvM3b control hairpin cells, pre-treated 100 uM): did not enhance the metastatic activity

N=C(N)NCCC(=O)O [B-GPA, beta-guanidinopropionic acid]
effect on cytotoxic activity of Gemcitabine [2]: enhanced the cytotoxic activity
metastatic colonization (liver metastasis, bioluminescence) [3, 9]: significantly reduced metastatic colonization
average photon flux ratio (bioluminescence imaging) ([3]; LvM3b cells, daily for three weeks, control group about 800): ~100
colon cancer metastasis to the liver ([3]; LvM3b cells, intra-peritoneal injection daily for three weeks, P<0.05): significant reduction
effect on cytotoxic activity of 5'-Fluorouracil [4]: enhanced the cytotoxic activity
average photon flux ratio (bioluminescence imaging) ([5]; day 1 normalized to day zero, control group about 2.7): ~1.6
tumor burden of pancreatic cancer cells in vivo ([5]; one day after injection, P<0.05): significant reduction

CN(CC(=O)O)C(=N)N [creatine]
rescue of metastasis suppression upon CKB knockdown [1]: rescued metastasis suppression

NC1=NCCN1CC(=O)O [cyclocreatine]
comparison with standard-of-care FOLFOX chemotherapy [3, 9]: superior to the current standard-of-care FOLFOX chemotherapy
metastatic colonization (liver metastasis, bioluminescence) [3, 9]: significantly reduced metastatic colonization

creatine-phosphate
rescue of metastasis suppression upon CKB knockdown [1]: rescued metastasis suppression

shSLC6a8 #2: short hairpin RNA targeting SLC6a8, SEQ ID NO 19 (DNA) / 20 (RNA) (CCGGGCUGGUCUACAACAACACCUACUCGAGUAGGUGUUGUUGUAGACCAGCUUUUUG; listed as RNA, chemistry not fully specified)
metastasis of SW480 colon cancer cells [6]: significantly inhibited metastasis

shSLC6a8 #4: short hairpin RNA targeting SLC6a8, SEQ ID NO 13 (DNA) / 17 (RNA) (CCGGCUUAUUCCCUACGUCCUGAUCCUCGAGGAUCAGGACGUAGGGAAUAAGUUUUUG; listed as RNA, chemistry not fully specified)
colon cancer metastasis (liver) [7]: inhibition of colon cancer metastasis

shSLC6a8 #5: short hairpin RNA targeting SLC6a8, SEQ ID NO 14 (DNA) / 18 (RNA) (CCGGAUUACCUGGUCAAGUCCUUUACUCGAGUAAAGGACUUGACCAGGUAAUUUUUUG; listed as RNA, chemistry not fully specified)
colon cancer metastasis (liver) [7]: inhibition of colon cancer metastasis
pancreatic cancer metastasis [8]: significant reduction in pancreatic cancer metastasis
